Results on eight compounds are retold here after ChEMBL document CHEMBL1201862, “PubChem BioAssay data set” (2004).

Assay in all cases: NCI-60 cell line screen, 48 h
In assay [1] the test system is MDA-N.
For assay [2], the system named is MOLT-4.
Assay [3] concerns 786-0.
Assay [4] concerns KM12.
Assay [5] deals with SK-MEL-5.
Assay [6] has as its system CAKI-1.
For assay [7], the system named is Malme-3M.
The subject of assay [8] is MCF7.
In assay [9] the test system is PC-3.
Assay [10] deals with DU-145.
For assay [11], the system named is BT-549.
In assay [12] the test system is HL-60.
Assay [13] has as its system COLO 205.
The test system of assay [14] is SNB-75.
For assay [15], the system named is SF-268.
For assay [16], the system named is HCC 2998.
Assay [17] has as its system UACC-257.
The test system of assay [18] is UACC-62.
The subject of assay [19] is OVCAR-5.

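Dose response: 5 concentrations. Exposure: 48 h. Format: 96-well plates. Endpoint: linear interpolation; highest concentration if not reached. GI50 = concentration required for 50% inhibition of growth.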 The source made the active and inactive calls. No stated cut-off is given here; in the data, active = GI50 up to about 1.1 µM and inactive = higher. Bounds are passed on as bounds.

Take `CSC1(SC)N2Cc3ccccc3N=C2C1(c1ccccc1)c1ccccc1`: the GI50 in assay [1] is 12.5 µM (inactive); in assay [2], 2.77 µM (inactive); in assay [3] it was 22.5 µM (inactive); in assay [4] it was 7.73 µM (inactive); in [5], 11.4 µM (inactive); in [6], 11 µM (inactive). Further, the GI50 in [7] was 8.22 µM (inactive); in assay [8], 8.17 µM (inactive); in [9], 12 µM (inactive); in assay [10], 19.5 µM (inactive); in assay [11], > 50.6 µM (inactive); in assay [12] it was 6.08 µM (inactive). Moreover, the GI50 in [13] was 5.89 µM (inactive); in assay [14], > 100 µM (inactive); in assay [15], 21.3 µM (inactive); in [16], 2.6 µM (inactive); in assay [17], 13 µM (inactive); in [18] it was 12.6 µM (inactive). Moreover, the GI50 in [19] is > 40.1 µM (inactive).

Take `O=C1O[C@H]2C3C4CCC(C4[C@@H]2I)[C@H]13` (some centres undefined): the GI50 in [1], in [2], in [3], in [4], in assay [5] and in [6] was > 100 µM (inactive) in each case. Further, the GI50 in assay [7], in assay [8], in [9], in assay [10], in assay [11] and in [12] was > 100 µM (inactive) in each case. Moreover, the GI50 in assay [13] is > 100 µM (inactive); in [14], 60.3 µM (inactive); in [15], > 100 µM (inactive); in assay [16] it was > 100 µM (inactive); in [17] it was > 100 µM (inactive); in [18], > 100 µM (inactive). The GI50 in assay [19] was > 100 µM (inactive).

As to `CCOC(=O)CCC(NC(=O)Cc1ccc(Nc2nc3cc(F)c(F)cc3nc2C(=O)OCC)cc1)C(=O)OCC` (centres undefined), the GI50 in assay [1] was > 100 µM (inactive); in [2], 44.6 µM (inactive); in assay [3] it was > 100 µM (inactive); in assay [4], > 100 µM (inactive); in assay [5], > 100 µM (inactive); in [6], > 100 µM (inactive). Moreover, the GI50 is 88.1 µM (inactive) in assay [7]; 88.7 µM (inactive) in [8]; > 100 µM (inactive) in assay [9]; > 100 µM (inactive) in [10]; 51.2 µM (inactive) in assay [11]; 21.5 µM (inactive) in [12]. For the same compound, the GI50 in [13] is > 100 µM (inactive); in [14], 35.2 µM (inactive); in assay [15], 31.3 µM (inactive); in assay [16], > 100 µM (inactive); in assay [17], 28.6 µM (inactive); in assay [18], 58.7 µM (inactive). Further, the GI50 in assay [19] was > 100 µM (inactive).

As to `COc1cc(C2c3cc4c(cc3OC(NC3CCCCC3)C2C)OCO4)cc(OC)c1OC` (centres undefined), the GI50 in assay [1] was 0.188 µM (active); in assay [2] it was 0.48 µM (active); in assay [3], 0.493 µM (active); in assay [4] it was 0.407 µM (active); in assay [5], 0.362 µM (active); in assay [6], 0.409 µM (active). In addition, the GI50 in [7] was 0.321 µM (active); in assay [8], 0.485 µM (active); in assay [9] it was 0.382 µM (active); in assay [10], 0.478 µM (active); in assay [11], 0.649 µM (active); in assay [12], 0.271 µM (active). The GI50 in assay [13] is 0.241 µM (active); in [14], 0.223 µM (active); in [15], 0.701 µM (active); in assay [16] it was 1.5 µM (inactive); in [17], 46.8 µM (inactive); in assay [18], 0.379 µM (active). The GI50 in assay [19] was 3.03 µM (inactive).

For the compound `C=CC1=C(C)c2cc3[nH]c(c4c5nc(cc6[nH]c(cc1n2)c(C=O)c6CC)C(C)=C5C(=O)[C@@H]4C(=O)OC)[C@@H](CCC(=O)O)[C@@H]3C`, the GI50 in assay [1] was > 100 µM (inactive); in [2] it was 43.6 µM (inactive); in assay [3] it was > 100 µM (inactive); in [4], 21.5 µM (inactive); in [5] it was 30.3 µM (inactive); in assay [6], > 100 µM (inactive). Moreover, the GI50 in [7] was > 100 µM (inactive); in [8], > 100 µM (inactive); in [9], 63.4 µM (inactive); in assay [10], 13.4 µM (inactive); in assay [11] it was > 100 µM (inactive); in assay [12], 42.6 µM (inactive). Also, the GI50 in assay [13] is 95.7 µM (inactive); in assay [14], 2.54 µM (inactive); in assay [15], 24.4 µM (inactive); in assay [16], > 100 µM (inactive); in assay [17], 83.9 µM (inactive); in assay [18], > 100 µM (inactive). Further, the GI50 in assay [19] was > 100 µM (inactive).

With `CS(=O)(=O)Nc1ccc2ccccc2c1-c1c(NS(C)(=O)=O)ccc2ccccc12`, the GI50 was > 25 µM (inactive) in [1]; > 25 µM (inactive) in [2]; > 15.5 µM (inactive) in assay [3]; > 25 µM (inactive) in [4]; > 25 µM (inactive) in [5]; > 25 µM (inactive) in assay [6]. The GI50 in assay [7] is > 25 µM (inactive); in [8], 1.17 µM (inactive); in assay [9] it was > 25 µM (inactive); in [10], > 25 µM (inactive); in assay [11], > 25 µM (inactive); in [12] it was > 25 µM (inactive). Besides, the GI50 in [13] is > 25 µM (inactive); in assay [14], > 19.1 µM (inactive); in [15] it was > 25 µM (inactive); in [16], > 25 µM (inactive); in assay [17], > 25 µM (inactive); in assay [19], > 25 µM (inactive).

`COC(=O)CCC(C)[C@H]1CCC2C3C(C[C@H](OC(C)=O)[C@@]21C)[C@@]1(C)CCC2(C[C@H]1C[C@H]3OC(C)=O)OOC1(CCCC1)OO2` (some centres undefined): the GI50 in [1] was 32.4 µM (inactive); in [2], 4.28 µM (inactive); in assay [3], 29.6 µM (inactive); in [4], 23.3 µM (inactive); in [5] it was 20.2 µM (inactive); in assay [6], 12.2 µM (inactive). Also, the GI50 in [7] was > 100 µM (inactive); in assay [8], 31.5 µM (inactive); in [9], 4.47 µM (inactive); in assay [10] it was 27 µM (inactive); in assay [11] it was 46 µM (inactive); in assay [12], 5.02 µM (inactive). Moreover, the GI50 in assay [13] was 30.4 µM (inactive); in [14], 96.4 µM (inactive); in assay [15], 25.6 µM (inactive); in assay [16], > 100 µM (inactive); in assay [17], 39.2 µM (inactive); in assay [19] it was > 100 µM (inactive).

In the case of `Cc1oc2c(Cl)cc(O)c(Cl)c2c2cccc1-2`, the GI50 was 18.5 µM (inactive) in assay [1]; 21.9 µM (inactive) in assay [3]; 17.7 µM (inactive) in assay [4]; 19.4 µM (inactive) in assay [5]; 30.1 µM (inactive) in assay [6]; 25.7 µM (inactive) in assay [7]. Also, the GI50 is 9.73 µM (inactive) in [8]; 31.3 µM (inactive) in assay [9]; 8.85 µM (inactive) in [10]; 23.6 µM (inactive) in [11]; 25.8 µM (inactive) in [12]; 30.4 µM (inactive) in [13]. Also, the GI50 was 2.83 µM (inactive) in [14]; 34.9 µM (inactive) in [15]; > 100 µM (inactive) in [16]; > 100 µM (inactive) in assay [17]; 28.6 µM (inactive) in assay [18]; 45.5 µM (inactive) in [19].
